What was measured:
[1] = tested on: HIV-1 NL4-3 / TZM-bl cells; test: HIV-1 virion-based (BlaM-Vpr) virus-cell fusion assay; conditions: standard (pre-CD4 binding) and TAS (post-CD4 binding, 23°C 1 h then 37°C 2 hr); E2 peptides 20 µM, AMD-3100 10 µM, 2F5 0.5 µg/ml, b12 and B4 0.3 µg/ml; five independent experiments each in triplicate
Protocol: HIV-1 virions containing the BlaM-Vpr chimera were produced as previously described [33]. Briefly, 293T cells were co-transfected with pNL4-3 proviral DNA, pCMV-BlaM-Vpr, and pAdVAntage vectors. After 2 days of cultivation, the virus-containing supernatant was centrifuged for 10 min at 300×g to remove cellular debris. The HIV-1 virion-containing supernatant was overlaid onto a 20% sucrose cushion and ultracentrifuged at 35000×g at 4°C for 90 min. The resulting pellet was resuspended in medium and aliquots were frozen at −80°C until usage.
The virion-based fusion assay was performed essentially as described elsewhere [41]. Briefly, 5×10^4 TZM-bl cells were infected with sucrose-purified HIV-1 NL4-3 virions containing BlaM-Vpr (5 ng p24-Gag per approach). Under temperature-arrested state (TAS) conditions, binding of the HI virions to target cells was allowed at low temperature via spinning inoculation, for which virions were added to cells and centrifuged at 2095×g, 4°C for 30 min. […] BlaM activity was quantified using a fluorescence plate reader. The extent of virus-cell fusion was determined from the ratio of blue (460 nm) and green (510 nm) emission upon exciting the cells at 405 nm.
To find out whether early or late steps of HIV-1 entry are affected by the E2 peptides, the E2 peptide activity was determined before and after gp120/CD4 engagement using the Vpr-β-lactamase (Vpr-BlaM) enzyme-based virus-cell fusion assay under standard (pre-CD4 binding) and temperature-arrested state (TAS; post-CD4 binding) conditions, respectively.
The HIV-inhibitory activity of known HIV-1 entry inhibitors or respective E2 peptides was determined using a virus-cell fusion assay under standard (respective inhibitors were added simultaneously to HIV NL4-3BlaM-Vpr inoculum: pre-CD4 binding) or under TAS (temperature-arrested state) conditions (respective inhibitors were added at low temperature of 23°C for 1 h after spin-inoculation [4°C] and removal of unbound HIV-1 particles: post-CD4 binding). […] Percentages were calculated in relation to mock-treated cells. […]

CD4 = CD4 surface expression, flow cytometry; type: cell-based, human; conditions: PBMC and TZM-bl cells; E2 peptides 25 µM, PMA 40 ng/ml; 6 hr; FACS; RTCN vs mock; average of two independent experiments each in triplicate
Protocol: (§1) PHA/IL-2-stimulated PBMC or TZM-bl cells were incubated with E2 peptides (25 µM), phorbol 12-myristate 13-acetate (PMA; 40 ng/ml), SDF-1α (1 µg/ml) or RANTES (50 nM) for 6 hr. CD4, CXCR4 and CCR5 surface expression was analyzed by using standard FACS staining protocols. Cells were washed with PBS and incubated for 30 min at 4°C with PE-labeled antibodies (CD4 clone SK3, CXCR4 clone 12G5, and CCR5 clone 2D7, BD Biosciences, Germany). Subsequently, washed cells were resuspended in PBS and analyzed with a FACSCalibur™ flow cytometer (BD Biosciences, Germany).
(§2) The non-HIV-1-inhibitory peptide P28 derived from the C-terminal part of E2 (residue 271 to 290), served as a negative control.
(§3) CD4, CXCR4 and CCR5 expression on PBMC (A) and TZM-bl cells (B) after preincubation with E2 peptides were determined by flow cytometry analysis. […] Percentages illustrate the ratio-to-cell-negative (RTCN) values that were calculated from the percentage of positive cells and the fluorescence intensity of peptide-incubated cells compared to mock-incubated cells. Columns show average values ±SD of two independent experiments each performed in triplicate. *: p<0.05; **: p<0.01 (mock- vs. inhibitor-incubated cells).

gp120/CCR5 interaction = type: binding, HIV-1; conditions: 293T cells expressing CCR5; sCD4 added; peptides 0.2 mM, E2_340-Fc 0.6 µM; 1 h 37°C; normalized to Hsp90
Protocol: Briefly, 293T cells were transiently transfected with either pCD4 or pCCR5 expression plasmids. Verification of expression was performed 2 days after transfection via flow cytometry. After 2 days of cultivation, the cells were resuspended in binding buffer (50 mM HEPES, 5 mM MgCl2, 1 mM CaCl2, 5% BSA, 0.1 mM NaN3, pH 7.5). […] After incubation for 1 h at 37°C, cells were washed with cold PBS and lysed in Triton X-100 and Tween-20 containing buffer. Lysates were separated by a 5% SDS-PAGE and verified with monoclonal gp120 antibody F425 B4a1 (NIH AIDS Research and Reference Reagent Program) or with sheep α-HIV-1-gp120 (Aalto Bio Reagents Ltd.) in Western Blot analyses. HIV-1 gp120 (5 ng) was used as a standard.
In a related approach, the effect of E2 peptides or intact E2 protein on the interaction between gp120 and the coreceptors CCR5 and CXCR4 expressed on cells was tested by immunoblotting. To ensure efficient binding of gp120 to the coreceptors, soluble CD4 (sCD4) was added simultaneously.
Soluble HIV-1 gp120 was added to the CD4-, CCR5-, or CXCR4-expressing cells and binding was investigated by separating the cell lysates on SDS-PAGE and visualized by performing Western Blot analyses.

[2] = biological target: E2_340-Fc / HIV-1 gp41MN interaction (Human immunodeficiency virus type 1 group M subtype B, UniProt P05877); type: binding; conditions: ELISA, immobilized gp41MN, E2_340-Fc constant (5 µg/ml), increasing peptide; three independent experiments each in duplicate
Protocol: Flat-bottom, 96-well Microtest ELISA plates (Sarstedt, Germany) were coated overnight at 4°C with recombinant HIV-1 gp120 (0.5 µg/ml), gp41 (0.22 µg/ml) proteins, or with streptavidin (4 µg/ml) in coating buffer (0.1 M NaHCO3, 0.1 M Na2CO3, pH 9.87). Nonspecific binding was blocked (blocking buffer: 1% BSA, 0.1% Tween-20 in phosphate buffer, pH 7.2) for 1 h at room temperature, followed by washing steps (wash buffer: 0.1% Tween in phosphate buffer, pH 7.2). […] All plates were then incubated with recombinant E2_340-Fc or Fc protein in serial dilutions in sample buffer (phosphate buffer, pH 7.2) for 3 hr at room temperature. To perform the competitive ELISAs, the recombinant E2_340-Fc protein was adjusted at 5 µg/ml and the monoclonal gp41 antibodies (246-D, F240, T32, D50, 2F5, 4E10, Chessie 8 [all: NIH AIDS Research and Reference Reagent Program], and 5F3 [Polymun, Austria]) at 100 µM. After washing procedure, the plates were incubated for 1 h with polyclonal rabbit anti-human IgG peroxidase antibody (Dako, Germany) 1∶6000 in sample buffer and washed. Plates were developed with TMB peroxidase substrate solution (KPL, USA), or with OPD/H2O2 solution in the dark. Absorbances (ODs) were read at 450 or 492 nm, respectively, using a multi-channel photometer (ELISA-Reader AxSYM, Abbott Laboratory, USA).
Competitive binding of E2 and gp120 peptides (N35, N35s) with recombinant E2_340-Fc protein to immobilized recombinant gp41MN. Simultaneously to E2_340-Fc incubation peptides of E2 or gp120 were added with increasing amounts.

HIV-1 = conditions: ref [33]; cited from earlier work
CCR5 = CCR5 surface expression, flow cytometry; type: cell-based, human; conditions: PBMC and TZM-bl cells; E2 peptides 25 µM, RANTES 50 nM; 6 hr; FACS; RTCN vs mock; average of two independent experiments each in triplicate
Protocol: as §1, §2, §3

CXCR4 = CXCR4 surface expression, flow cytometry; type: cell-based, human; conditions: PBMC and TZM-bl cells; E2 peptides 25 µM, SDF-1α 1 µg/ml; 6 hr; FACS; RTCN vs mock; average of two independent experiments each in triplicate
Protocol: as §1, §2, §3

[3] = tested on: HIV-1 Env (NL4-3 gp160, X4env) on 293T cells; test: HIV-1 gp160 (X4env) binding of FITC-labeled E2 peptides, flow cytometry; conditions: FITC-labeled peptides 1 µM, sCD4 pretreated, 1 h 37°C, X4env- vs vector-transfected 293T cells; three independent experiments each in duplicate
Protocol: 293T cells were transiently transfected with an HIV-1 Env expression vector, coding for the CXCR4-tropic NL4-3 gp160 precursor (X4env) for surface expression of gp120-gp41 Env trimers or empty plasmid as control. After 2 days of cultivation, cells were incubated with 1 µg sCD4 and 1 µM FITC-conjugated E2 peptides for 1 h at 37°C respectively. Subsequently, cells were washed, resuspended in PBS, and analyzed by flow cytometry using a BD™ LSR II flow cytometer (Becton Dickinson Biosciences, Germany). Flow cytometer data were collected with BD FACSDiva™ and analyzed with FCS Express V3. In parallel, gp160 expression was determined by staining with HIV-1 gp120 mAbs (2G12 and 17b) and an anti-human IgG-FITC pAb (Dako, Germany).
Previously, we have shown that the target of the HIV-1-inhibitory E2 peptides is most likely located on the HIV-1 particle, rather than on the cell. The surface of the HIV-1 particle consists of a lipid bilayer with incorporated host cell proteins and a limited number of functional envelope (Env) trimers (on average 14±7). Therefore, we tested whether the HIV-1-inhibitory E2 peptides interact with trimeric HIV-1 Env proteins expressed on the surface of transfected cells. For this purpose, 293T cells were transiently transfected with an HIV-1 Env expression vector, coding for the gp160 precursor of the CXCR4-tropic NL4-3 envelope (X4env). Binding of FITC-labeled E2 peptides was monitored by flow cytometry.
Figure 4 Recombinant E2_340-Fc protein and E2-derived peptides bind HIV-1 gp41. (A) 293T cells expressing NL4-3 envelope (X4env) or empty plasmid as control were incubated with sCD4 and FITC-conjugated E2 peptides, respectively. Peptide binding was analyzed by flow cytometry. Percentages illustrate the increase of cell binding to X4env-transfected cells. The increase is normalized to the background binding of E2 peptides to mock-transfected cells by calculating the RTCN value. […] (C) E2 peptides with increasing amounts were added to recombinant E2_340-Fc protein (at constant concentration) and then transferred to immobilized recombinant gp41MN.

[4] = biological target: recombinant HIV-1 gp41MN (truncated gp41 ectodomain) (HIV-1 (strain MN)); test: ELISA; competitive: gp41MN immobilised; E2_(340)-Fc at constant 5 µg/ml with increasing amounts of peptide; bound E2_(340)-Fc detected with anti-human IgG peroxidase antibody

c1cc(CN2CCCNCCNCCCNCC2)ccc1CN1CCCNCCNCCCNCC1 [AMD-3100, reference compound]
inhibition of virus-cell fusion, standard versus TAS conditions [1]: act after CD4 engagement

CCCCCCCCCCCCCC(=O)O[C@@H]1[C@@H](C)[C@@]2(O)[C@@H](C=C(CO)C[C@]3(O)C(=O)C(C)=C[C@@H]23)[C@@H]2C(C)(C)[C@]12OC(C)=O [PMA, phorbol 12-myristate 13-acetate, reference compound]
CD4 surface presentation (CD4): down-regulation of CD4

Cc1ccc(-c2ccc3c(c2)C=C(C(=O)Nc2ccc(C[N+](C)(C)C4CCOCC4)cc2)CCC3)cc1.[Cl-] [TAK-779]
interference with gp120 binding to CCR5 (gp120/CCR5 interaction): clear reduction in the gp120/CCR5

Ac-TEVSEALGGAGLTGGFYEPL [P28]
competition with E2_340-Fc for gp41 binding [2]: no effect | HIV-inhibitory activity (earlier work) (HIV-1): non-HIV-1-inhibitory | CD4 surface presentation (CD4): no relevant effect on HIV-1 receptor presentation | CCR5 surface presentation (CCR5): no relevant effect on HIV-1 receptor presentation | CXCR4 surface presentation (CXCR4): no relevant effect on HIV-1 receptor presentation | binding to HIV-1 Env-expressing cells [3]: the increase of binding was not observed

GBV-C E2 peptide P6-2 (amino acids 45 to 64)
IC50 [4]: 7 µM

Maraviroc
interference with gp120 binding to CCR5 (gp120/CCR5 interaction): clear reduction in the gp120/CCR5

N35, HIV-1 gp120 N-terminus peptide (gp120 residue 31 to 65) (from UniProt P04578 31-65)
IC50 [4]: 0.7 µM

N35s, C54S variant of the HIV-1 gp120 N-terminus peptide N35 (from UniProt P04578 31-65)
IC50 [4]: 4.6 µM

SDF-1α [reference compound]
CXCR4 surface presentation (CXCR4): down-regulation of the respective coreceptors

B1: RANTES: CCR5-ligand (protein, UniProt P13501 24-91, looked up)
C-C motif chemokine 5: SPYSSDTTPCCFAYIARPLPRAHIKEYFYTSGKCSNPAVVFVTRKNRQVCANPEKKWVREYINSLEMS
CCR5 surface presentation (CCR5): down-regulation of the respective coreceptors
